Measured values taken from patent EP0855387A1, “2-ACYLAMINOBENZAMIDE DERIVATIVES AND PREVENTIVE AND REMEDY FOR DISEASES CAUSED BY THE SUPERMULTIPLICATION OF VASCULAR INTIMAL CELLS” (KISSEI PHARMACEUTICAL CO., LTD., priority 1995, dated 1997).

The compounds below were run on Spontaneous hypertensive rat-derived vascular smooth muscle cells (VSMCs) in thoracic aorta (assay: Inhibition test on vascular smooth muscle cells proliferation (3H-thymidine incorporation)). Details: 3H-thymidine incorporation into DNA, 24 hours incubation with compound; read-out: Concentration of 50% inhibitory activity (IC50).
Format: cell-based
Method: Thus, the compounds of the present invention have a very potent inhibitory effect on vascular smooth muscle cells proliferation.
Spontaneous hypertensive rat-derived vascular smooth muscle cells (VSMCs) in thoracic aorta were isolated by explant technique. The VSMCs were placed into 96 wells at 5000 cells/well and incubated in DMEM containing 10 % fetal calf serum at 37 °C in 95 % air and 5 % carbon dioxide for 3 days. After the incubation, the medium was replaced with DMEM containing each compound and ^3H-thymidine, and then the VSMCs were incubated. 24 hours later, the incorporation of ^3H-thymidine into DNA was determined and the radioactivity was defined as proliferation inhibitory activity of VSMCs. The activity of each compound was shown as a concentration which reduced the radioactivity of non-treated group by 50 % (IC50).
CCCCNC(=O)c1ccccc1NC(=O)/C=C/c1ccc(OC)c(OC)c1 [Compound 19, (E)-N-Butyl-2-(3,4-dimethoxycinnamoylanino)benzamide] showed an IC50 of 5 µM. COc1ccc(/C=C/C(=O)Nc2ccccc2C(=O)NCCCc2ccccc2)cc1OC [Compound 20, (E)-2-(3,4-Dimethoxycinnanoylamino)-N-(3-phenylpropyl)benzamide] was tested, and the IC50 was 7 µM. COc1cc(/C=C/C(=O)Nc2ccccc2C(=O)NCCO)cc(OC)c1OC [Compound 45, (E)-N-(2-Hydroxyethyl)-2-(3,4,5-trimethoxycinnnamoylamino)benzamide] was tested, and the IC50 was 34 µM.

Same assay, conditions: Rattus norvegicus, VSMC; 3H-thymidine incorporation into DNA, 24 hours incubation with compound; read-out: Concentration of 50% inhibitory activity (IC50)
In the case of CCOc1ccc(/C=C/C(=O)Nc2cc(OC)c(OC)cc2C(N)=O)cc1OC [Compound 65, (E)-4,5-Dimethoxy-2-(4-ethoxy-3-methoxycinnamoylamino)benzamide], the IC50 is reported as 12 µM. COc1ccccc1/C=C/C(=O)Nc1ccccc1C(N)=O [Compound 24, (E)-2-(2-Methoxycinnamoylamino)benzamide] showed an IC50 of 8 µM. Work on NC(=O)c1ccccc1NC(=O)/C=C/c1ccc2c(c1)OCCO2 [Compound 38, (E)-2-(3,4-Ethylenedioxycinnamoylamino)benzamide] yielded an IC50 of 58 µM. COc1ccc(NC(=O)/C=C/c2ccc(OC)c(OC)c2)c(C(N)=O)c1 [Compound 67, (E)-2-(3,4-Dimethoxycinnamoylamino)-5-methoxybenzamide] was tested, and the IC50 was 57 µM. Work on COc1ccc(OC)c(/C=C/C(=O)Nc2ccccc2C(N)=O)c1 [Compound 13, (E)-2-(2,5-Dimethoxycinnamoylamino)benzamide] yielded an IC50 of 3 µM. COc1cc(OC)c(/C=C/C(=O)Nc2ccccc2C(N)=O)c(OC)c1 [Compound 37, (E)-2-(2,4,6-Trimethoxycinnamoylamino)benzamide] gave an IC50 of 100 µM. For COc1ccc(/C=C/C(=O)Nc2cc(OC)c(OC)cc2C(N)=O)cc1OC [Compound 66, (E)-4,5-Dimethoxy-2-(3,4-dimethoxycinnamoylamino)benzamide], the IC50 was 13 µM. For CNC(=O)c1ccccc1NC(=O)/C=C/c1ccc(OC)c(OC)c1 [Compound 58, (E)-2-(3,4-Dimethoxycinnamoylamino)-N-methylbenzamide], the IC50 was 15 µM. For CN(C)c1ccc(/C=C/C(=O)Nc2ccccc2C(N)=O)cc1 [Compound 55, (E)-2-(4-Dimethylaminocinnamoylamino)benzamide], the IC50 was 65 µM. Work on NC(=O)c1ccccc1NC(=O)/C=C/c1cccc(Cl)c1 [Compound 22, (E)-2-(3-Chlorocinnamoylamino)benzamide] yielded an IC50 of 30 µM. Compound COc1ccc(/C=C/C(=O)Nc2ccccc2C(=O)NCCN(CCO)CCO)cc1OC [Compound 50, (E)-N-[2-[Bis(2-hydroxyethyl)amino]ethyl]-2-(3,4-dimethoxycinnamoylamino)benzamide] has an IC50 of 71 µM. COc1ccc(C(C#N)=CC(=O)Nc2ccccc2C(N)=O)cc1OC [Compound 53, 2-(β-Cyano-3,4-dimethoxycinnamoylamino)benzamide] gave an IC50 of 56 µM. CCOc1ccccc1/C=C/C(=O)Nc1ccccc1C(N)=O [Compound 21, (E)-2-(2-Ethoxycinnamoylamino)benzamide] gave an IC50 of 30 µM. For COc1cc(/C=C/C(=O)Nc2ccccc2C(=O)NCCOCCO)cc(OC)c1OC [Compound 43, (E)-N-[2-(2-Hydroxyethoxy)ethyl]-2-(3,4,5-trimethoxycinnamoylamino)benzamide], the IC50 was 44 µM. Work on CCOc1ccc(/C=C/C(=O)Nc2ccccc2C(N)=O)cc1 [Compound 9, (E)-2-(4-Ethoxycinnamoylamino)benzamide] yielded an IC50 of 5 µM. COc1ccc(/C=C/C(=O)Nc2ccccc2C(=O)NO)cc1OC [Compound 60, (E)-2-(3,4-Dimethoxycinnamoylamino)-N-hydroxybenzamide] gave an IC50 of 36 µM. In the case of CCOc1cc(/C=C/C(=O)Nc2ccccc2C(N)=O)ccc1OC [Compound 16, (E)-2-(3-Ethoxy-4-methoxycinnamoylamino)benzamide], the IC50 is reported as 5 µM. Compound CCOC(=O)c1ccccc1/C=C/C(=O)Nc1ccccc1C(N)=O [Compound 3, (E)-2-(2-Ethoxycarbonylcinnamoylamino)benzamide] has an IC50 of 46 µM. For CCOc1cc(/C=C/C(=O)Nc2ccccc2C(=O)NCCO)ccc1OC [Compound 49, (E)-2-(3-Ethoxy-4-methoxycinnamoylamino)-N-(2-hydroxyethyl)benzamide], the IC50 was 42 µM. Work on COc1cccc(/C=C/C(=O)Nc2ccccc2C(N)=O)c1 [Compound 11, (E)-2-(3-Methoxycinnamoylamino)benzamide] yielded an IC50 of 9 µM. COc1cc(/C=C/C(=O)Nc2ccccc2C(N)=O)cc(OC)c1O [Compound 69, (E)-2-(3,5-Dimethoxy-4-hydroxycinnamoylamino)benzamide] was tested, and the IC50 was 55 µM. In the case of NC(=O)c1ccccc1NC(=O)/C=C/c1ccc2c(c1)OCO2 [Compound 30, (E)-2-(3,4-Methylenedioxycinnamoylamino)benzamide], the IC50 is reported as 9 µM. In the case of CCOc1c(OC)cc(/C=C/C(=O)Nc2ccccc2C(N)=O)cc1OC [Compound 35, (E)-2-(3,5-Dimethoxy-4-ethoxycinnamoylamino)benzamide], the IC50 is reported as 61 µM. COc1ccc(C=C(C#N)C(=O)Nc2ccccc2C(N)=O)cc1OC [Compound 52, 2-(α-Cyano-3,4-dimethoxycinnamoylamino)benzamide] was tested, and the IC50 was 117 µM. In the case of CC(=O)c1ccc(/C=C/C(=O)Nc2ccccc2C(N)=O)cc1 [Compound 33, (E)-2-(4-Acetylcinnamoylamino)benzamide], the IC50 is reported as 78 µM. COc1cc(/C=C/C(=O)Nc2ccccc2C(=O)NCCN(CCO)CCO)cc(OC)c1OC [Compound 51, (E)-N-[2-[Bis(2-hydroxyethyl)amino]ethyl]-2-(3,4,5-trimethoxycinnamoylamino)benzamide] showed an IC50 of 28 µM. CCOc1ccc(/C=C/C(=O)Nc2ccccc2C(=O)NCCOCCO)cc1OC [Compound 44, (E)-2-(4-Ethoxy-3-methoxycinnamoylamino)-N-[2-(2-hydroxyethoxy)ethyl]benzamide] gave an IC50 of 58 µM. In the case of COc1ccc(/C=C/C(=O)Nc2ccccc2C(=O)NCCO)cc1OC [Compound 46, (E)-2-(3,4-Dimethoxycinnamoylamino)-N-(2-hydroxyethyl)benzamide], the IC50 is reported as 58 µM. Work on COc1ccc(/C=C/C(=O)Nc2ccccc2C(=O)NCCOCCO)cc1OC [Compound 42, (E)-2-(3,4-Dimethoxycinnamoylamino)-N-[2-(2-hydroxyethoxy)ethyl]benzamide] yielded an IC50 of 69 µM. COc1ccc(/C=C/C(=O)Nc2ccccc2C(=O)NCC2CCCCC2)cc1OC [Compound 59, (E)-N-Cyclohexylmethyl-2-(3,4-dimethoxycinnamoylamino)benzamide] showed an IC50 of 4 µM. In the case of COc1cc(NC(=O)/C=C/c2cc(OC)c(OC)c(OC)c2)c(C(N)=O)cc1OC [Compound 57, (E)-4,5-Dimethoxy-2-(3,4,5-trimethoxycinnamoylamino)benzamide], the IC50 is reported as 9 µM. COc1ccc(NC(=O)/C=C/c2ccc(OC)c(OC)c2)c(C(=O)NCCO)c1 [Compound 62, (E)-2-(3,4-Dimethoxycinnamoylamino)-N-(2-hydroxyethyl)-5-methoxybenzamide] gave an IC50 of 89 µM. In the case of COc1cccc(/C=C/C(=O)Nc2ccccc2C(N)=O)c1OC [Compound 5, (E)-2-(2,3-Dimethoxycinnamoylamino)benzamide], the IC50 is reported as 5 µM. For COc1cc(/C=C/C(=O)Nc2ccccc2C(N)=O)cc(OC)c1OC [Compound 26, (E)-2-(3,4,5-Trimethoxycinnamoylamino)benzamide], the IC50 was 7 µM. In the case of COc1ccc(/C=C/C(=O)Nc2cc(OC)c(OC)cc2C(=O)NCCO)cc1OC [Compound 56, (E)-4,5-Dimethoxy-2-(3,4-dimethoxycinnamoylamino)-N-(2-hydroxyethyl)benzamide], the IC50 is reported as 44 µM. COc1cc(OC)c(OC)cc1/C=C/C(=O)Nc1ccccc1C(N)=O [Compound 25, (E)-2-(2,4,5-Trimethoxycinnamoylamino)benzamide] gave an IC50 of 6 µM. Compound COc1ccc(/C=C/C(=O)Nc2ccccc2C(=O)NCCCCO)cc1OC [Compound 47, (E)-2-(3,4-Dimethoxycinnamoylamino)-N-(4-hydroxybutyl)benzamide] has an IC50 of 60 µM. In the case of CCCCOc1cccc(/C=C/C(=O)Nc2ccccc2C(N)=O)c1 [Compound 7, (E)-2-(3-Butoxycinnamoylamino)benzamide], the IC50 is reported as 86 µM. COc1cc(/C=C/C(=O)Nc2c(O)cccc2C(N)=O)cc(OC)c1OC [Compound 64, (E)-3-Hydroxy-2-(3,4,5-trimethoxycinnamoylamino)benzamide] was tested, and the IC50 was 96 µM. CC(C)Oc1cccc(/C=C/C(=O)Nc2ccccc2C(N)=O)c1 [Compound 2, (E)-2-(3-Isopropoxycinnamoylamino)benzamide] gave an IC50 of 14 µM. CCOc1cccc(/C=C/C(=O)Nc2ccccc2C(N)=O)c1 [Compound 1, (E)-2-(3-Ethoxycinnamoylamino)benzamide] showed an IC50 of 2 µM. Compound COc1ccc(/C=C/C(=O)Nc2ccccc2C(=O)NCCN(C)C)cc1OC [Compound 39, (E)-2-(3,4-Dimethoxycinnamoylamino)-N-(2-dimethylaminoethyl)benzamide] has an IC50 of 55 µM. Compound COc1cc(/C=C/C(=O)Nc2ccccc2C(=O)NCCCCO)cc(OC)c1OC [Compound 48, (E)-N-(4-Hydroxybutyl)-2-(3,4,5-trimethoxycinnamoylamino)benzamide] has an IC50 of 42 µM. NC(=O)c1ccccc1NC(=O)/C=C/c1cccc(F)c1 [Compound 23, (E)-2-(3-Fluorocinnamoylamino)benzamide] showed an IC50 of 39 µM. With COc1cc(/C=C/C(=O)Nc2ccc(O)cc2C(N)=O)cc(OC)c1OC [Compound 63, (E)-5-Hydroxy-2-(3,4,5-trimethoxycinnamoylamino)benzamide] the IC50 was 46 µM. In the case of COc1ccc(/C=C/C(=O)Nc2ccccc2C(N)=O)c(OC)c1 [Compound 12, (E)-2-(2,4-Dimethoxycinnamoylamino)benzamide], the IC50 is reported as 3 µM.
